The target of test [1] is T1, human TRPV1 (Homo sapiens, UniProt Q8NER1).
T1 construct: expressed in transfected cells
The test can be described thus: Acid Activation Assay (pH 5.0, FLIPR intracellular Ca2+, recombinant HEK293 cells). The class given is cell-based. To be noted: percentage of maximal pH 5.0-induced response remaining; HEK293 hTRPV1; max concentration 37.5 μM. How it is done:
(ii) Acid Activation Assay
Dulbecco's modified Eagle's medium (DMEM) with 4.5 mg/mL D-glucose, fetal bovine serum, L-glutamine, and 2-morpholinoethanesulfonic acid (MES) were purchased from Sigma-Aldrich Co. (St. Louis, Mo.). […] The FLIPR® Calcium 4 assay kit was purchased from Molecular Devices (Sunnyvale, Calif.).
(§1) Expression plasmids encoding the hTRPV1 cDNA were transfected into HEK293 cells using Lipofectamine®. Forty-eight hours after transfection, the neomycin-resistant cells were selected with growth medium containing 800 μg/mL Geneticin (Life Technologies, formerly Gibco BRL). Surviving individual colonies were isolated and screened for TRPV1 activity. Cells expressing recombinant TRPV1 were maintained at 37° C. in DMEM containing 4 mM L-glutamine, 300 μg/mL G418 (Calbiochem) and 10% fetal bovine serum under a humidified 5% CO2 atmosphere.
The functional activity of compounds at the TRPV1 receptor was determined by measurement of intracellular Ca^2+ levels ([Ca^2+]i) using the Fluorescence Imaging Plate Reader (FLIPR)TETRA®. […] Compound stocks, 10 mM, were prepared in DMSO, and diluted serially across a 384-well plate using a Bravo BenchCel workstation (Agilent Technologies, Santa Clara, Calif.). On the day prior to the experiment, the recombinant HEK293 cells expressing human TRPV1 (hTRPV1) were removed from tissue culture flasks and plated in growth medium into black-walled clear-bottom 384-well Biocoat™ poly-D-lysine assay plates (BD Biosciences, Bedford, Mass.) using a Multidrop® dispenser (ThermoScientific, Waltham, Mass.). […] The plated cells were incubated for 90-120 min in the dark at 25° C. The test compounds dissolved in DMSO were then added to the plates using an Agilent Bravo workstation (Agilent Technologies Inc., Santa Clara, Calif.). Three minutes later, a pH 5.0 solution was added to each well. Reagents were delivered at a rate of 40 μL/sec, and the final assay volume was 80 μL. Acidic pH solutions were prepared by titration of DPBS/MES with 1 N HCl. The intensity of the fluorescence was captured and digitally transferred to an interfaced PC. The maximum peak measured for the concentration range tested was used to calculate the corresponding peak increase in fluorescence over baseline (relative fluorescence units) which was expressed as the percentage (max % remain) of the maximal pH 5.0-induced response.

Test [2] deals with T1, human TRPV1. The test can be described thus: Capsaicin Activation Assay (FLIPR intracellular Ca2+, recombinant HEK293 cells). The class given is cell-based. How it is done: (i) Capsaicin Activation Assay
Dulbecco's modified Eagle medium (DMEM) (with 4.5 mg/mL glucose) and fetal bovine serum were obtained from Hyclone Laboratories, Inc. (Logan, Utah). Dulbecco's phosphate-buffered saline (DPBS) (with 1 mg/mL glucose and 3.6 mg/l Na pyruvate, without phenol red), L-glutamine, hygromycin B, and Lipofectamine® were obtained from Life Technologies (Grand Island, N.Y.). G418 sulfate was obtained from Calbiochem-Novabiochem Corp. (San Diego, Calif.). Capsaicin (8-methyl-N-vanillyl-6-nonenamide) was obtained from Sigma-Aldrich, Co. (St. Louis, Mo.). Fluo-4 AM (N-[4-[6-[(acetyloxy)-methoxy]-2,7-difluoro-3-oxo-3H-xanthen-9-yl]-2-[2-[2-[bis[2-[(acetyloxy)methoxy]-2-oxyethyl]amino]-5-methylphenoxy]ethoxy]phenyl]-N-[2-[(acetyloxy)methoxy]-2-oxyethyl]-glycine, (acetyloxy)methyl ester) was purchased from Molecular Probes (Eugene, Oreg.).
as §1
The functional activity of compounds at the TRPV1 receptor was determined by measurement of intracellular Ca^2+ levels ([Ca^2+]i) using the Fluorescence Imaging Plate Reader (FLIPR)TETRA®. All compounds were tested over a 12-point one-third-log concentration range. Compound stocks, 10 mM, were prepared in DMSO, and diluted serially across a 384-well plate using a Bravo BenchCel workstation (Agilent Technologies, Santa Clara, Calif.). A stock concentration of capsaicin (10 mM) was made in DMSO, and diluted in DPBS to a final concentration of 200 nM (4×). On the day prior to the experiment, the recombinant HEK293 cells expressing human TRPV1 (hTRPV1) were removed from tissue culture flasks and plated in growth medium into black-walled clear-bottom 384-well Biocoat™ poly-D-lysine assay plates (BD Biosciences, Bedford, Mass.) using a Multidrop® dispenser (ThermoScientific, Waltham, Mass.). […] The plated cells were incubated for 90-120 minutes in the dark at room temperature and then test compound was added to each well. Three minutes later, 200 nM capsaicin (4×) solution was added to each well in an amount sufficient to provide a final assay volume of 80 μL and capsaicin concentration of 50 nM. Fluorescence readings were made at 1 to 5 second intervals over the course of the experimental run. The peak increase in relative fluorescence units (minus baseline) was calculated, and expressed as a percentage of the 50 nM capsaicin (control) response.

The mark [3] stands for this setting: recombinant HEK293 cells expressing hTRPV1, 50 nM capsaicin, read-out: human TRPV1 capsaicin IC50.

Read-outs that look alike come from different tables or passages of the source.

T1 sequence (Q8NER1 whole entry): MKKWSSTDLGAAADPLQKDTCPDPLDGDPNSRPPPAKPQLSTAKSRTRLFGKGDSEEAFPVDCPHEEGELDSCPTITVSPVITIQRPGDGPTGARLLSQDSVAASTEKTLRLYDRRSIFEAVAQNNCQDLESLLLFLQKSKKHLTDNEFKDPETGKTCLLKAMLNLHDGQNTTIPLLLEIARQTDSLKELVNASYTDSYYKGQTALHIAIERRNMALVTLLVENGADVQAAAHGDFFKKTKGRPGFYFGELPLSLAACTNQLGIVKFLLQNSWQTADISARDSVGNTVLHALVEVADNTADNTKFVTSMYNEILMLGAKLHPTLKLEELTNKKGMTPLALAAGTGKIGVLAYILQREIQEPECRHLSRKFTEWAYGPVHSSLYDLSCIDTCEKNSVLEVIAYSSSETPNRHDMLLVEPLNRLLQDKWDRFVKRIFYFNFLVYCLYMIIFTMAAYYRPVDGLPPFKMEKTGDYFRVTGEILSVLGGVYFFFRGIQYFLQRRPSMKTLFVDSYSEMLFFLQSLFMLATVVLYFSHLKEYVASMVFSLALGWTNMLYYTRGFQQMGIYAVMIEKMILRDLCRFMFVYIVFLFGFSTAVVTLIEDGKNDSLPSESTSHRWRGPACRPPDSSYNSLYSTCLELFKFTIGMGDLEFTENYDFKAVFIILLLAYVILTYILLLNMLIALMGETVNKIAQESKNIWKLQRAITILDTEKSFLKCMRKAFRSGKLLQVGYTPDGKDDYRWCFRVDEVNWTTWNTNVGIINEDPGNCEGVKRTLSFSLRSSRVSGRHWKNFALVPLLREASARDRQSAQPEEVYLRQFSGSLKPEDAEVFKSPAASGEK

Turning to `CC1(C)C[C@@H](NC(=O)Nc2ccc(F)c3c2C[C@H](O)C3)c2ccc(F)c(Cl)c2O1` [Example 147, 1-[(4R)-8-chloro-7-fluoro-2,2-dimethyl-3,4-dihydro-2H-chromen-4-yl]-3-[(2S)-7-fluoro-2-hydroxy-2,3-dihydro-1H-inden-4-yl]urea], the “human TRPV1 H+ (max % remain)” value at human TRPV1 [1] came out at 2%. Also, at human TRPV1 [2] (setting [3]), the IC50 is 440 nM.
In the case of `CC1(C)C[C@@H](NC(=O)Nc2ccc(F)c3c2C[C@@H](O)C3)c2ccc(C(F)(F)F)cc2O1` [Example 160, 1-[(4R)-2,2-dimethyl-7-(trifluoromethyl)-3,4-dihydro-2H-chromen-4-yl]-3-[(2R)-7-fluoro-2-hydroxy-2,3-dihydro-1H-inden-4-yl]urea], the “human TRPV1 H+ (max % remain)” value on human TRPV1 [1] stood at 61%. In addition, the IC50 at human TRPV1 [2] (setting [3]) stood at 130 nM.
`O=C(Nc1cccc2c1CC(O)C2)NC1c2ccccc2OCC1c1ccccc1` (centres unmarked) [Example 108, 1-(2-hydroxy-2,3-dihydro-1H-inden-4-yl)-3-(3-phenyl-3,4-dihydro-2H-chromen-4-yl)urea]: the “human TRPV1 H+ (max % remain)” value at human TRPV1 [1] is 97%. The IC50 at human TRPV1 [2] (setting [3]) was determined as 8000 nM.
Consider `O=C(Nc1cccc2c1CC(O)C2)NC1c2ccccc2OCC1c1ccc(Cl)cc1` (centres unmarked) [Example 115, 1-[3-(4-chlorophenyl)-3,4-dihydro-2H-chromen-4-yl]-3-(2-hydroxy-2,3-dihydro-1H-inden-4-yl)urea], for which the “human TRPV1 H+ (max % remain)” value at human TRPV1 [1] worked out at 94%. Besides, the IC50 on human TRPV1 [2] (setting [3]) stood at 1100 nM.
For `CC1(C)C[C@@H](NC(=O)Nc2cccc3c2C[C@@H](O)C3)c2ccc(F)c(F)c2O1` [Example 38, 1-[(4R)-7,8-difluoro-2,2-dimethyl-3,4-dihydro-2H-chromen-4-yl]-3-[(2S)-2-hydroxy-2,3-dihydro-1H-inden-4-yl]urea], the “human TRPV1 H+ (max % remain)” value at human TRPV1 [1] came out at 43%. On human TRPV1 [2] (setting [3]), the half-inhibitory concentration (IC50) worked out at 37 nM.
In the case of `CC(=O)Nc1nc2c(Oc3cc(-c4ccc(C(F)(F)F)cc4)ncn3)cccc2s1` [A, reference compound], at human TRPV1 [1], the “human TRPV1 H+ (max % remain)” value is reported as 10%. The IC50 on human TRPV1 [2] (setting [3]) was found to be 20 nM.
Turning to `CC1(CF)C[C@@H](NC(=O)Nc2cccc3c2C[C@H](O)C3)c2ccc(Cl)cc2O1` (stereo partly drawn) [Example 67, 1-[(4R)-7-chloro-2-(fluoromethyl)-2-methyl-3,4-dihydro-2H-chromen-4-yl]-3-[(2R)-2-hydroxy-2,3-dihydro-1H-inden-4-yl]urea], the “human TRPV1 H+ (max % remain)” value at human TRPV1 [1] worked out at 72%. The 50% inhibitory concentration (IC50) at human TRPV1 [2] (setting [3]) stood at 17 nM.
Regarding `O=C(Nc1cccc2c1C[C@H](O)C2)N[C@@H]1CCOc2c1cccc2C(F)(F)F` [Example 18, 1-[(2R)-2-hydroxy-2,3-dihydro-1H-inden-4-yl]-3-[(4R)-8-(trifluoromethyl)-3,4-dihydro-2H-chromen-4-yl]urea], at human TRPV1 [1], the “human TRPV1 H+ (max % remain)” value came out at 58%. On human TRPV1 [2] (setting [3]), the half-maximal inhibitory concentration (IC50) is 26 nM.
In the case of “1-[(4R)-7-fluoro-2,2-dimethyl-3,4-dihydro-2H-chromen-4-yl]-3-[(2R)-7-fluoro-2-hydroxy-2,3-dihydro-1H-inden-4-yl]urea [Example 158]”, the “human TRPV1 H+ (max % remain)” value on human TRPV1 [1] is given as 48%. For the same compound, the half-inhibitory concentration (IC50) on human TRPV1 [2] (setting [3]) turned out to be 600 nM.
On the same counts, the results for `C[C@]1(C(F)F)C[C@@H](NC(=O)Nc2cccc3c2C[C@H](O)C3)c2ccc(Cl)cc2O1` [Example 33, 1-[(2R,4R)-7-chloro-2-(difluoromethyl)-2-methyl-3,4-dihydro-2H-chromen-4-yl]-3-[(2R)-2-hydroxy-2,3-dihydro-1H-inden-4-yl]urea] are 51% and 27 nM.
With `C[C@]1(C(F)F)C[C@@H](NC(=O)Nc2cccc3c2C[C@H](O)C3)c2ccccc2O1` [Example 127, 1-[(2R,4R)-2-(difluoromethyl)-2-methyl-3,4-dihydro-2H-chromen-4-yl]-3-[(2R)-2-hydroxy-2,3-dihydro-1H-inden-4-yl]urea], the “human TRPV1 H+ (max % remain)” value on human TRPV1 [1] worked out at 62%. For the same compound, the IC50 on human TRPV1 [2] (setting [3]) turned out to be 260 nM.
`CC1(C)C[C@@H](NC(=O)Nc2cccc3c2C[C@@H](O)C3)c2ccc(Cl)c(F)c2O1` [Example 35, 1-[(4R)-7-chloro-8-fluoro-2,2-dimethyl-3,4-dihydro-2H-chromen-4-yl]-3-[(2S)-2-hydroxy-2,3-dihydro-1H-inden-4-yl]urea]: the “human TRPV1 H+ (max % remain)” value on human TRPV1 [1] is recorded as 14%. For the same compound, the half-maximal inhibitory concentration (IC50) on human TRPV1 [2] (setting [3]) was determined as 11 nM.
For `O=C(Nc1cccc2c1C[C@H](O)C2)N[C@H]1CC(CF)(CF)Oc2cc(Cl)ccc21` [Example 97, 1-[(4S)-7-chloro-2,2-bis(fluoromethyl)-3,4-dihydro-2H-chromen-4-yl]-3-[(2R)-2-hydroxy-2,3-dihydro-1H-inden-4-yl]urea], the “human TRPV1 H+ (max % remain)” value on human TRPV1 [1] was determined as 58%. In addition, the IC50 at human TRPV1 [2] (setting [3]) was 1100 nM.
With `O=C(Nc1c(F)ccc2c1C[C@H](O)C2)N[C@@H]1CC(CF)(CF)Oc2cc(C(F)(F)F)ccc21` [Example 96, 1-[(4R)-2,2-bis(fluoromethyl)-7-(trifluoromethyl)-3,4-dihydro-2H-chromen-4-yl]-3-[(2R)-5-fluoro-2-hydroxy-2,3-dihydro-1H-inden-4-yl]urea], the “human TRPV1 H+ (max % remain)” value at human TRPV1 [1] was found to be 2%. For the same compound, the IC50 on human TRPV1 [2] (setting [3]) was 62 nM.
As for `C[C@]1(CF)C[C@@H](NC(=O)Nc2ccc3c(c2)C(O)C3)c2ccc(Cl)cc2O1` (stereo partly drawn) [Example 131, 1-[(2R,4R)-7-chloro-2-(fluoromethyl)-2-methyl-3,4-dihydro-2H-chromen-4-yl]-3-(8-hydroxybicyclo[4.2.0]octa-1,3,5-trien-3-yl)urea], the “human TRPV1 H+ (max % remain)” value at human TRPV1 [1] worked out at 92%. Moreover, the IC50 on human TRPV1 [2] (setting [3]) worked out at 1000 nM.
For the compound `O=C(Nc1cccc2c1C[C@H](O)C2)N[C@@H]1CCOc2c(OC(F)(F)F)cccc21` [Example 6, 1-[(2R)-2-hydroxy-2,3-dihydro-1H-inden-4-yl]-3-[(4R)-8-(trifluoromethoxy)-3,4-dihydro-2H-chromen-4-yl]urea], the “human TRPV1 H+ (max % remain)” value at human TRPV1 [1] was 67%. In addition, the half-inhibitory concentration (IC50) at human TRPV1 [2] (setting [3]) was determined as 16 nM.
With `O=C(Nc1ccc(F)c2c1C[C@H](O)C2)N[C@@H]1CC(CF)(CF)Oc2cc(Cl)ccc21` [Example 134, 1-[(4R)-7-chloro-2,2-bis(fluoromethyl)-3,4-dihydro-2H-chromen-4-yl]-3-[(2S)-7-fluoro-2-hydroxy-2,3-dihydro-1H-inden-4-yl]urea], the “human TRPV1 H+ (max % remain)” value on human TRPV1 [1] is 3%. Moreover, at human TRPV1 [2], the half-inhibitory concentration (IC50) amounted to 349 nM.
As to `C[C@@]1(C(F)F)C[C@@H](NC(=O)Nc2cccc3c2C[C@H](O)C3)c2ccc(Cl)cc2O1` [Example 20, 1-[(2S,4R)-7-chloro-2-(difluoromethyl)-2-methyl-3,4-dihydro-2H-chromen-4-yl]-3-[(2R)-2-hydroxy-2,3-dihydro-1H-inden-4-yl]urea], the “human TRPV1 H+ (max % remain)” value at human TRPV1 [1] was determined as 64%. The IC50 at human TRPV1 [2] (setting [3]) worked out at 36 nM.
Regarding `O=C(Nc1cccc2c1CC(O)C2)NC1CC(c2ccc(F)cc2)Oc2ccccc21` (centres unmarked) [Example 119, 1-[2-(4-fluorophenyl)-3,4-dihydro-2H-chromen-4-yl]-3-(2-hydroxy-2,3-dihydro-1H-inden-4-yl)urea], at human TRPV1 [1], the “human TRPV1 H+ (max % remain)” value is recorded as 72%. In addition, the IC50 on human TRPV1 [2] (setting [3]) amounted to 430 nM.

In general, IC50 refers to the point on the concentration scale where inhibition reaches its midpoint.

The values above are taken from patent US8859584B2, “TRPV1 antagonists” (AbbVie Inc., priority 2011, dated 2014).
